Measurements published in patent US20250289789A1, “REVERSIBLE LYSINE COVALENT MODIFIERS OF CDK2 AND USES THEREOF” (Terremoto Biosciences, Inc., priority 2023, published 2025).

Tests used:
Assay type in all cases: cell-based
[1] = target: T1, CDK4-NanoLuc fusion with CCND1 in 293T or 293 cells (Homo sapiens, UniProt P11802); test: NanoBRET Target Engagement (TE) Intracellular Kinase Assay, CDK4/CCND1; conditions: NanoBRET TE intracellular kinase assay, 2-hour incubation, read-out: NanoBRET-CDK4/D1 IC50
T1 construct: host or cells: 293T (ATCC CRL-3216) or 293 (ATCC CRL-1573)
T1 sequence (P11802 whole entry, the tested form may be a part): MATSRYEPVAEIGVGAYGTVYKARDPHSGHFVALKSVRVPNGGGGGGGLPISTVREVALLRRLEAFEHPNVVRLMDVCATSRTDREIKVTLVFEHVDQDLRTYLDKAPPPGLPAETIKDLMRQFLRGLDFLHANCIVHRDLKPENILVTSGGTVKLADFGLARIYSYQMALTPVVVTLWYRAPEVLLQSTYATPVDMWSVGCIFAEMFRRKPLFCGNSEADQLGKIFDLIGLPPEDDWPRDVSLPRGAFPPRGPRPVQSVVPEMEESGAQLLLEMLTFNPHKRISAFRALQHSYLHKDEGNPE
T1 sequence (P24385 whole entry partner, the tested form may be a part): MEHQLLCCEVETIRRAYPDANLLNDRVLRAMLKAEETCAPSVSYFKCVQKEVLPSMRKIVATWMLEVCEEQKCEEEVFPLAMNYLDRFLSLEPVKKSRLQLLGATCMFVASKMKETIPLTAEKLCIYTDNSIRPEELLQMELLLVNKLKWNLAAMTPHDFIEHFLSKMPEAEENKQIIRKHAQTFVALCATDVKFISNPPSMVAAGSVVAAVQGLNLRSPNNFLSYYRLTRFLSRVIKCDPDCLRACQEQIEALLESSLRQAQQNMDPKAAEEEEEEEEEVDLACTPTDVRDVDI

[2] = system: Phospho-Rb Ser807/811 in OVCAR3 cells; test: OVCAR3 Phospho-Rb Ser807/811 HTRF assay; conditions: Homo sapiens, OVCAR-3, 1 h, OVCAR3 cells, Phospho-Rb Ser807/811 HTRF, 1 hour incubation; read-out: pRb-OVCAR3 IC50
Method: Cells were trypsinized and resuspended in 1 mM hydroxyurea (Sigma; H8627), 90% RPMI and 10% fetal bovine serum. […] Dose response curve normalized to DMSO control was plotted using four-parameter logistic model for IC50 calculation.

[3] = target: T2, CDK1-NanoLuc fusion with CCNB1 in 293T or 293 cells (Homo sapiens, UniProt P06493); test: NanoBRET Target Engagement (TE) Intracellular Kinase Assay, CDK1/CCNB1; conditions: NanoBRET TE intracellular kinase assay, 2-hour incubation, read-out: NanoBRET-CDK1/B1 IC50
T2 construct: host or cells: 293T (ATCC CRL-3216) or 293 (ATCC CRL-1573)
T2 sequence (P06493 whole entry, the tested form may be a part): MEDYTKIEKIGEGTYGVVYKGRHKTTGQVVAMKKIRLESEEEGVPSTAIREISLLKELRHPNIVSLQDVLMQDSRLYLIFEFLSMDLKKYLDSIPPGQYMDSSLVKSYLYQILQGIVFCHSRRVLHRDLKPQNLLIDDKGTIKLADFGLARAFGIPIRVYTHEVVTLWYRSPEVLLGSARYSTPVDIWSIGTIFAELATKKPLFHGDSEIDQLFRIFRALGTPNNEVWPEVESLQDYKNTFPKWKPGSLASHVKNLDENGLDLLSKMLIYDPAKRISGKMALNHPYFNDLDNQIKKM
T2 sequence (P14635 whole entry partner, the tested form may be a part): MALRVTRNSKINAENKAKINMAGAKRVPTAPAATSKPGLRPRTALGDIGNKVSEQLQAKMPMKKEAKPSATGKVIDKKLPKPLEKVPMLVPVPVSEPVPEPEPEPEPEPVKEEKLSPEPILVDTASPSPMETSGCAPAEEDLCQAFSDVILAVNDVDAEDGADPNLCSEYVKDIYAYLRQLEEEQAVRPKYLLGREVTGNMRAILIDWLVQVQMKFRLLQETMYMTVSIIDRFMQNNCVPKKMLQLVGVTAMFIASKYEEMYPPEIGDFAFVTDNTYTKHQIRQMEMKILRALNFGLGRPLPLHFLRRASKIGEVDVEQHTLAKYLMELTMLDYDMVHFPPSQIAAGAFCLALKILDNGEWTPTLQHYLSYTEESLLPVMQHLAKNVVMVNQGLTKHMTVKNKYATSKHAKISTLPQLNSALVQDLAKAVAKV
Method in brief: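 293T or 293 cells co-transfected with CDK1-NanoLuc and CCNB1 vectors, incubated 24 h, then exposed to NanoBRET Tracer K-10 plus compound for 2 h at 37° C. BRET ratio (610/450 nm) normalized to DMSO; IC50 from four-parameter logistic fit.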

[4] = target: T3, CDK2-NanoLuc fusion with CCNE1 in 293T or 293 cells (Homo sapiens, UniProt P24941); test: NanoBRET Target Engagement (TE) Intracellular Kinase Assay, CDK2/CCNE1; conditions: NanoBRET TE intracellular kinase assay, 2-hour incubation, read-out: NanoBRET-CDK2/E1 IC50
T3 construct: host or cells: 293T (ATCC CRL-3216) or 293 (ATCC CRL-1573)

Row | Compound | IC50 [1] | IC50 [2] | IC50 [3] | IC50 [4]
1 | COc1cccc(OCC(=O)Nc2cc([C@H]3CC[C@@H](OC(=O)NC4(C)CCC4)C3)[nH]n2)c1C=O [Compound 105, (1R,3S)-3-{5-[2-(2-formyl-3-methoxyphenoxy)acetamido]-2H-pyrazol-3-yl}cyclopentyl N-(1-methylcyclobutyl)carbamate; trifluoroacetic acid] | 2350 nM | 65.8 nM | 2.18 nM | 1.01 nM
2 | COCc1cc(O)c(C=O)c(OCC(=O)Nc2cc([C@H]3CC[C@@H](OC(=O)NC(C)C)C3)[nH]n2)c1 [Compound 72, (1R,3S)-3-(3-(2-(2-formyl-3-hydroxy-5-(methoxymethyl)phenoxy)acetamido)-1H-pyrazol-5-yl)cyclopentyl isopropylcarbamate] | > 10000 nM | 477 nM | 436 nM | 8.38 nM
3 | COc1cc(O)c(C=O)c(OCC(=O)Nc2cc([C@H]3CC[C@@H](OC(=O)N4C[C@@H]5C[C@H]4CO5)C3)[nH]n2)c1 [Compound 204] | > 9510 nM | 34.6 nM | 12.2 nM | 4.54 nM
4 | COc1cc(O)c(C=O)c(OCC(=O)Nc2cc([C@@H]3CC[C@H](OC(=O)NC(C)C)C3)[nH]n2)c1 [Compound 247] | 7210 nM | 101 nM | 19.4 nM | 15.8 nM
5 | COc1cc(O)c(C=O)c(OCC(=O)Nc2cc([C@H]3CC[C@@H](OC(=O)N[C@H]4C[C@H]4F)C3)[nH]n2)c1 [Compound 132] | 2940 nM | 22 nM | 10.8 nM | 3.39 nM
6 | COC[C@H](C)NC(=O)O[C@@H]1CC[C@H](c2cc(NC(=O)COc3cc(OC)cc(O)c3C=O)n[nH]2)C1 [Compound 200] | 8410 nM | 27.7 nM | 8.83 nM | 5.07 nM
7 | CC(C)NC(=O)O[C@@H]1CC[C@H](c2cc(NC(=O)COc3cccc(-c4nccs4)c3C=O)n[nH]2)C1 [Compound 98, (1R,3S)-3-(3-(2-(2-formyl-3-(thiazol-2-yl)phenoxy)acetamido)-1H-pyrazol-5-yl)cyclopentyl isopropylcarbamate] | > 10000 nM | 3340 nM | 1490 nM | 12 nM
8 | COc1cc(O)c(C=O)c(OCC(=O)Nc2cc([C@H]3CC[C@@H](OC(=O)N4CCC(F)(F)C4)C3)[nH]n2)c1 [Compound 246] | 6110 nM | 33 nM | 9.45 nM | 2.78 nM
9 | COc1cc(O)c(C=O)c(OCC(=O)Nc2cc([C@H]3C[C@@H](OC(=O)N4C5COCC4C5)C3)[nH]n2)c1 [Compound 111, (1s,3s)-3-(3-(2-(2-formyl-3-hydroxy-5-methoxyphenoxy)acetamido)-1H-pyrazol-5-yl)cyclobutyl 3-oxa-6-azabicyclo[3.1.1]heptane-6-carboxylate] | > 10000 nM | 79.8 nM | 21 nM | 5.45 nM
10 | COc1ccc(-c2cc(C(=O)Nc3cc([C@H]4CC[C@@H](OC(=O)NC(C)C)C4)[nH]n3)n(C)n2)c(C=O)c1O [Compound 74, (1R,3S)-3-{5-[5-(2-formyl-3-hydroxy-4-methoxyphenyl)-2-methylpyrazole-3-amido]-2H-pyrazol-3-yl}cyclopentyl N-isopropylcarbamate; trifluoroacetic acid] | 3950 nM | 523 nM | 29.5 nM | 7.06 nM
11 | CC(C)NC(=O)O[C@@H]1CC[C@H](c2cc(Nc3cc(COc4cccc(O)c4C=O)ccn3)n[nH]2)C1 [Compound 24, (1R,3S)-3-(3-((4-((2-formyl-3-hydroxyphenoxy)methyl)pyridin-2-yl)amino)-1H-pyrazol-5-yl)cyclopentyl isopropylcarbamate] | 4880 nM | 3760 nM | 516 nM | 18.7 nM
12 | CC(C)NC(=O)O[C@@H]1CC[C@H](c2cc(NC(=O)c3cc(-c4ccc(O)c(C=O)c4)nn3C)n[nH]2)C1 [Compound 31, (1R,3S)-3-{5-[5-(3-formyl-4-hydroxyphenyl)-2-methylpyrazole-3-amido]-2H-pyrazol-3-yl}cyclopentyl N-isopropylcarbamate] | 3070 nM | 214 nM | 20.4 nM | 5.46 nM
13 | Cc1cc(O)c(C=O)c(OCC(=O)Nc2cc([C@H]3CC[C@@H](OC(=O)NC(C)C)C3)[nH]n2)c1 [Compound 57, (1R,3S)-3-(3-(2-(2-formyl-3-hydroxy-5-methylphenoxy)acetamido)-1H-pyrazol-5-yl)cyclopentyl isopropylcarbamate] | > 9580 nM | 110 nM | 21.9 nM | 3.06 nM
14 | CC(C)NC(=O)O[C@@H]1CC[C@H](c2cc(NC(=O)c3cc(-c4cc(F)cc(O)c4C=O)nn3C)n[nH]2)C1 [Compound 42, (1R,3S)-3-{5-[5-(5-fluoro-2-formyl-3-hydroxyphenyl)-2-methylpyrazole-3-amido]-2H-pyrazol-3-yl}cyclopentyl N-isopropylcarbamate; trifluoroacetic acid] | 2680 nM | 176 nM | 10.6 nM | 5.5 nM
15 | CCCNC(=O)O[C@H]1C[C@@H](c2cc(NC(=O)COc3cc(OC)cc(OC)c3C=O)n[nH]2)C1 [Compound 110, (1s,3s)-3-(3-(2-(2-formyl-3,5-dimethoxyphenoxy)acetamido)-1H-pyrazol-5-yl)cyclobutyl propylcarbamate] | 5360 nM | 27.7 nM | 7.64 nM | 2.9 nM

More lines, now with the values ahead:

Row | IC50 [1] | IC50 [2] | IC50 [3] | IC50 [4] | Compound
16 | 1460 nM | 796 nM | 275 nM | 24.4 nM | CC(C)NC(=O)O[C@@H]1CC[C@H](c2cc(NC(=O)c3cc(C=O)c4[nH]ncc4c3)n[nH]2)C1 [Compound 40, (1R,3S)-3-(3-(7-formyl-1H-indazole-5-carboxamido)-1H-pyrazol-5-yl)cyclopentyl isopropylcarbamate]
17 | 1310 nM | 1440 nM | 165 nM | 9.73 nM | CC(C)NC(=O)O[C@@H]1CC[C@H](c2cc(NC(=O)[C@H]3C[C@@H](Oc4cccc(O)c4C=O)C3)n[nH]2)C1 (single isomer, unassigned) [Compound 94]
18 | 966 nM | 15.1 nM | 4.13 nM | 1.22 nM | COc1cc(O)c(C=O)c(OCC(=O)Nc2cc([C@H]3CC[C@@H](OC(=O)NC4(C)CC4)C3)[nH]n2)c1 [Compound 251, (1R,3S)-3-(3-(2-(2-formyl-3-hydroxy-5-methoxyphenoxy)acetamido)-1H-pyrazol-5-yl)cyclopentyl (1-methylcyclopropyl)carbamate]
19 | 2300 nM | 40.2 nM | 4.84 nM | 2.18 nM | COc1cc(O)c(C=O)c(OCC(=O)Nc2cc([C@H]3CC[C@@H](OC(=O)N4CCCC45CC5)C3)[nH]n2)c1 [Compound 232]
20 | 848 nM | 125 nM | 10.8 nM | 2.28 nM | COc1cc(O)c(C=O)c(-c2cc(C(=O)Nc3cc([C@H]4CC[C@@H](OC(=O)NC(C)C)C4)[nH]n3)n(C)n2)c1 [Compound 48, (1R,3S)-3-{5-[5-(2-formyl-3-hydroxy-5-methoxyphenyl)-2-methylpyrazole-3-amido]-2H-pyrazol-3-yl}cyclopentyl N-isopropylcarbamate; trifluoroacetic acid]
21 | 474 nM | 1130 nM | 351 nM | 24.7 nM | CC(C)NC(=O)O[C@@H]1CC[C@H](c2cc(NC(=O)c3ccc(C=O)c4[nH]ncc34)n[nH]2)C1 [Compound 39, (1R,3S)-3-[5-(7-formyl-1H-indazole-4-amido)-2H-pyrazol-3-yl]cyclopentyl N-isopropylcarbamate]
22 | 1210 nM | 915 nM | 147 nM | 10.5 nM | CC(C)NC(=O)O[C@@H]1CC[C@H](c2cc(NC(=O)c3cc(C(=O)Nc4cccc(O)c4C=O)nn3C)n[nH]2)C1 [Compound 20, (1R,3S)-3-(5-{5-[(2-formyl-3-hydroxyphenyl)carbamoyl]-2-methylpyrazole-3-amido}-2H-pyrazol-3-yl)cyclopentyl N-isopropylcarbamate; trifluoroacetic acid]
